Source: patent US20260356856A1, “KRAS G12S AND G12C INHIBITORS” (MIRATI THERAPEUTICS, INC., priority 2023, published 2026)

Tests used:
[1] = target: T1, KRas G12C (Homo sapiens, UniProt P01116, G12C); assay: KRas binding assay, TR-FRET displacement of Cy5 labelled tracer; conditions: 60-minute incubation at room temperature, 1% DMSO, pH 7.5
T1 construct: Biotinylated KRas (corresponding to amino acids 1-169, produced at Accelegan Inc.); biotin (biotinylated); purchased Accelegan Inc
How it was run: (§1)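 Assay buffer was HEPES (50 mM, pH 7.5) with MgCl2 (5 mM), DTT (1 mM) and Tween-20 (0.005%). Biotinylated KRas spanning residues 1-169 met tracer, terbium streptavidin and compound (1% DMSO, final) for 60 minutes at ambient temperature before reading. POC values were fitted for IC50.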

[2] = target: T2, KRas G12S (Homo sapiens, UniProt P01116, G12S); assay: as above; conditions: 60-minute incubation at room temperature, 1% DMSO, pH 7.5
T2 construct: Biotinylated KRas (corresponding to amino acids 1-169, produced at Accelegan Inc.); biotin (biotinylated); purchased Accelegan Inc
How it was run: as §1

[3] = target: T3, KRas WT (Homo sapiens, UniProt P01116); assay: as above; conditions: 60-minute incubation at room temperature, 1% DMSO, pH 7.5
T3 construct: Biotinylated KRas (corresponding to amino acids 1-169, produced at Accelegan Inc.); biotin (biotinylated); purchased Accelegan Inc
How it was run: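 Biotinylated KRas (residues 1-169) was incubated with tracer, terbium-streptavidin and compound at 1% DMSO final in 50 mM HEPES pH 7.5 containing 5 mM MgCl2, 0.005% Tween-20 and 1 mM DTT. The plate was read after 60 min at room temperature, and percent-of-control data were fit to a 4-parameter IC50 equation.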

[4] = target: T4, KRas-mediated phosphorylation of ERK in MKN1 cells (Homo sapiens, UniProt P01116); assay: Inhibition of KRas-mediated phosphorylation of ERK (HTRF), MKN1 cells; type: cell-based; conditions: MKN1 cells (KRas WT); HTRF pERK; 3 h incubation
T4 construct: pERK HTRF read-out
Description: Inhibition of KRas Phosphorylation of ERK (HTRF) by Exemplary Compounds of Formula (Ia) or (Ib)
Cisbio HTRF Advanced pERK Assay Catalog #64AERPEH • Cells: MKN1, PSN1 • Procedure: • 1. Day 1: Seed 6,000 cells/well −25 μl/well in 384-well white solid bottom plate; RPM1_10% FBS. Incubate overnight at 37 °C/5% CO2. • 2.

[5] = target: T5, KRas-mediated phosphorylation of ERK in A549 cells (Homo sapiens, UniProt P01116, G12S); assay: Inhibition of KRas-mediated phosphorylation of ERK (HTRF), A549 cells; type: cell-based; conditions: HTRF pERK, 3 h incubation
T5 construct: pERK HTRF read-out

[6] = target: T6, KRas-mediated phosphorylation of ERK in H358 cells (Homo sapiens, UniProt P01116, G12C); assay: Inhibition of KRas-mediated phosphorylation of ERK (HTRF), H358 cells; type: cell-based; conditions: HTRF pERK, 3 h incubation
T6 construct: pERK HTRF read-out
T6 sequence (P01116 1-188 isoform P01116-2 G12C): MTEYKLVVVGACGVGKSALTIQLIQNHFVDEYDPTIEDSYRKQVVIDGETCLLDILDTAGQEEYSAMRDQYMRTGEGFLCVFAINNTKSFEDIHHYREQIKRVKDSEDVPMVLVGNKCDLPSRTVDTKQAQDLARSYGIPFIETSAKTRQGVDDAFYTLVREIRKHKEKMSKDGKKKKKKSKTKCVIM

T4 sequence (P01116 1-188 isoform P01116-2): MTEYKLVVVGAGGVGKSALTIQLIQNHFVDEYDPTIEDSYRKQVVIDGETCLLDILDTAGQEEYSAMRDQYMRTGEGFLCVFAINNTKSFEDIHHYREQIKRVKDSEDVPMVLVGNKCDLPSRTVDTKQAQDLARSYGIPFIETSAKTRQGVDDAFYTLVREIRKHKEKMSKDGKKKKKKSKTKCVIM
T2 sequence (P01116 1-169 isoform P01116-2 G12S): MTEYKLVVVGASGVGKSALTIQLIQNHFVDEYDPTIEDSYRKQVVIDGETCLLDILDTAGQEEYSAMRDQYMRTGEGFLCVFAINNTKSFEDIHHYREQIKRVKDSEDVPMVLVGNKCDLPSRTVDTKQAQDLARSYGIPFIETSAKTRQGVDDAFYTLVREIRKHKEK
T3 sequence (P01116 1-169 isoform P01116-2): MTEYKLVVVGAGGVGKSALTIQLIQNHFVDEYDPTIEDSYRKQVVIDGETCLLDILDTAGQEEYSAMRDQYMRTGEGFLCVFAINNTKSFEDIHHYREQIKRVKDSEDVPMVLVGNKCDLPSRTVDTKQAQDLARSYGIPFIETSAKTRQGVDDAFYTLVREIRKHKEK
T1 sequence (P01116 1-169 isoform P01116-2 G12C): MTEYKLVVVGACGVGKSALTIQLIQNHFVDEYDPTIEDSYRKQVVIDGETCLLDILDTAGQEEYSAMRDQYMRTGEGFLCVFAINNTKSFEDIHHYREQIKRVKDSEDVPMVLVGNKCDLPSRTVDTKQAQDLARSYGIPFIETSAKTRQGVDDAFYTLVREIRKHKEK
T5 sequence (P01116 1-188 isoform P01116-2 G12S): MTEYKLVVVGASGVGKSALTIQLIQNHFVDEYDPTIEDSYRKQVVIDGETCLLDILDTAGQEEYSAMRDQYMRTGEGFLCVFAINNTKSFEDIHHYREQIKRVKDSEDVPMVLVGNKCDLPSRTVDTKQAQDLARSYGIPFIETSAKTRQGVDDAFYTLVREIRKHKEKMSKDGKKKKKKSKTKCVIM

SMILES | IC50 [1] | IC50 [2] | IC50 [3] | IC50 [4] | IC50 [5] | IC50 [6]
Cc1ccn(C(=O)CCCN(C)c2cc(O[C@@H](C)[C@@H]3CCCN3C)nc(-c3cc([C@]4(C)CCCc5sc(N)c(C#N)c54)sn3)n2)n1 [Example 323, (R)-2-amino-4-methyl-4-(3-(4-(methyl (4-(3-methyl-1H-pyrazol-1-yl)-4-oxobutyl)amino)-6-((S)-1-((S)-1-methylpyrrolidin-2-yl)ethoxy)pyrimidin-2-yl)isothiazol-5-yl)-4,5,6,7-tetrahydrobenzo[b]thiophene-3-carbonitrile] | 17 nM | 26 nM | 346 nM | 1860 nM | 140 nM | 3330 nM
CC(=O)N(C)C(=O)[C@H]1C[C@@H]2CN(c3nc(OC[C@@]45CCCN4C[C@H](F)C5)nc4c(F)c(-c5ccc(F)c6sc(N)c(C#N)c56)c(Cl)cc34)C[C@@H]2C1 (atropisomer, axis not shown; (aR)) [Example 236, (3aR,5S,6aS)-N-acetyl-2-((S)-7-(2-amino-3-cyano-7-fluorobenzo[b]thiophen-4-yl)-6-chloro-8-fluoro-2-(((2R,7aS)-2-fluorotetrahydro-1H-pyrrolizin-7a(5H)-yl)methoxy)quinazolin-4-yl)-N-methyloctahydrocyclopenta[c]pyrrole-5-carboxamide] | 7 nM | 15 nM | 10 nM | 41 nM | 104 nM | 108 nM
Cn1ccc(COC(=O)C2CCN(c3nc(OC[C@@]45CCCN4C[C@H](F)C5)nc4c(F)c(-c5ccc(F)c6sc(N)c(C#N)c56)c(Cl)cc34)CC2)n1 [Example 245, (1-methyl-1H-pyrazol-3-yl)methyl 1-(7-(2-amino-3-cyano-7-fluorobenzo[b]thiophen-4-yl)-6-chloro-8-fluoro-2-(((2R,7aS)-2-fluorotetrahydro-1H-pyrrolizin-7a(5H)-yl)methoxy)quinazolin-4-yl)piperidine-4-carboxylate] | 12 nM | 8 nM | 6 nM | 15 nM | 148 nM | 148 nM
CC(=O)N(C)C(=O)CCCN(C)c1cc(O[C@@H](C)[C@@H]2CCCN2C)nc(-c2cc([C@]3(C)CCCc4sc(N)c(C#N)c43)sn2)n1 [Example 319, N-acetyl-4-((2-(5-((R)-2-amino-3-cyano-4-methyl-4,5,6,7-tetrahydrobenzo[b]thiophen-4-yl)isothiazol-3-yl)-6-((S)-1-((S)-1-methylpyrrolidin-2-yl)ethoxy)pyrimidin-4-yl)(methyl)amino)-N-methylbutanamide] | > 100000 nM | > 100000 nM | > 100000 nM | > 10000 nM | > 10000 nM | > 10000 nM
CCc1c(F)ccc2cc(O)cc(-c3ncc4c(N5CC[C@H](C(=O)n6ccc(C)n6)[C@H](C)C5)nc(OC[C@@]56CCCN5C[C@H](F)C6)nc4c3F)c12 [Example 85, ((3S,4S)-1-(7-(8-ethyl-7-fluoro-3-hydroxynaphthalen-1-yl)-8-fluoro-2-(((2R,7aS)-2-fluorotetrahydro-1H-pyrrolizin-7a(5H)-yl)methoxy)pyrido[4,3-d]pyrimidin-4-yl)-3-methylpiperidin-4-yl)(3-methyl-1H-pyrazol-1-yl)methanone] | 28 nM | 17 nM | 8 nM | 48 nM | 883 nM | 458 nM
CCc1c(F)ccc2cc(O)cc(-c3ncc4c(N5CCC(C(=O)n6ccc(N(C)C)n6)CC5)nc(OC[C@@]56CCCN5C[C@H](F)C6)nc4c3F)c12 [Example 58, (3-(dimethylamino)-1H-pyrazol-1-yl)(1-(7-(8-ethyl-7-fluoro-3-hydroxynaphthalen-1-yl)-8-fluoro-2-(((2R,7aS)-2-fluorotetrahydro-1H-pyrrolizin-7a(5H)-yl)methoxy)pyrido[4,3-d]pyrimidin-4-yl)piperidin-4-yl)methanone] | 108 nM | 221 nM | 89 nM | 427 nM | 338 nM | 677 nM
CCc1c(F)ccc2cc(O)cc(-c3ncc4c(N5CCC(C(=O)N(C)C(C)=O)CC5)nc(OC[C@@]56CCCN5C[C@H](F)C6)nc4c3F)c12 [Example 155, N-acetyl-1-(7-(8-ethyl-7-fluoro-3-hydroxynaphthalen-1-yl)-8-fluoro-2-(((2R,7aS)-2-fluorotetrahydro-1H-pyrrolizin-7a(5H)-yl)methoxy)pyrido[4,3-d]pyrimidin-4-yl)-N-methylpiperidine-4-carboxamide] | 204 nM | 135 nM | 140 nM | 671 nM | 445 nM | 2530 nM
CCc1c(F)ccc2cc(O)cc(-c3ncc4c(N(C)CCNC(=O)n5nccn5)nc(OC[C@@]56CCCN5C[C@H](F)C6)nc4c3F)c12 [Example 251, N-(2-((7-(8-ethyl-7-fluoro-3-hydroxynaphthalen-1-yl)-8-fluoro-2-(((2R,7aS)-2-fluorotetrahydro-1H-pyrrolizin-7a(5H)-yl)methoxy)pyrido[4,3-d]pyrimidin-4-yl)(methyl)amino)ethyl)-2H-1,2,3-triazole-2-carboxamide] | 21 nM | 65 nM | 70 nM | 1280 nM | 5440 nM | 66 nM
CN(CCCC(=O)Oc1ccccc1F)c1nc(OC[C@@]23CCCN2C[C@H](F)C3)nc2c(F)c(-c3ccc(F)c4sc(N)c(C#N)c34)c(Cl)cc12 [Example 218, 2-fluorophenyl 4-((7-(2-amino-3-cyano-7-fluorobenzo[b]thiophen-4-yl)-6-chloro-8-fluoro-2-(((2R,7aS)-2-fluorotetrahydro-1H-pyrrolizin-7a(5H)-yl)methoxy)quinazolin-4-yl)(methyl)amino)butanoate] | 3 nM | 16 nM | 83 nM | 322 nM | 175 nM | 15 nM
CCc1c(F)ccc2cc(O)cc(-c3ncc4c(N(C)CCC(C)C(=O)N(C)C(C)=O)nc(OC[C@@]56CCCN5C[C@H](F)C6)nc4c3F)c12 (stereo partly drawn) [Example 284, N-acetyl-4-((7-(8-ethyl-7-fluoro-3-hydroxynaphthalen-1-yl)-8-fluoro-2-(((2R,7aS)-2-fluorotetrahydro-1H-pyrrolizin-7a(5H)-yl)methoxy)pyrido[4,3-d]pyrimidin-4-yl)(methyl)amino)-N,2-dimethylbutanamide] | 8 nM | 5 nM | 77 nM | 446 nM | 7 nM | 39 nM
N#Cc1c(N)sc2c(F)ccc(-c3c(Cl)cc4c(N5CCN(S(=O)(=O)n6cncn6)CC5)nc(OC[C@@]56CCCN5C[C@H](F)C6)nc4c3F)c12 [Example 186, 4-(4-(4-((1H-1,2,4-triazol-1-yl)sulfonyl)piperazin-1-yl)-6-chloro-8-fluoro-2-(((2R,7aS)-2-fluorotetrahydro-1H-pyrrolizin-7a(5H)-yl)methoxy)quinazolin-7-yl)-2-amino-7-fluorobenzo[b]thiophene-3-carbonitrile] | 136 nM | 156 nM | 32 nM | 184 nM | 2830 nM | 1120 nM
CC(C)C(=O)N(C)C(=O)C1CCN(c2nc(OC[C@@]34CCCN3C[C@H](F)C4)nc3c(F)c(-c4ccc(F)c5sc(N)c(C#N)c45)c(Cl)cc23)CC1 [Example 206, 1-(7-(2-amino-3-cyano-7-fluorobenzo[b]thiophen-4-yl)-6-chloro-8-fluoro-2-(((2R,7aS)-2-fluorotetrahydro-1H-pyrrolizin-7a(5H)-yl)methoxy)quinazolin-4-yl)-N-isobutyryl-N-methylpiperidine-4-carboxamide] | 7 nM | 9 nM | 8 nM | 26 nM | 82 nM | 31 nM
Cc1ccn(C(=O)CCNc2nc(OC[C@@]34CCCN3C[C@H](F)C4)nc3c(F)c(-c4ccc(F)c5sc(N)c(C#N)c45)c(Cl)cc23)n1 [Example 177, 2-amino-4-(6-chloro-8-fluoro-2-(((2R,7aS)-2-fluorotetrahydro-1H-pyrrolizin-7a(5H)-yl)methoxy)-4-((3-(3-methyl-1H-pyrazol-1-yl)-3-oxopropyl)amino)quinazolin-7-yl)-7-fluorobenzo[b]thiophene-3-carbonitrile] | 2 nM | 4 nM | 9 nM | 1250 nM | 227 nM | 1110 nM
N#Cc1c(N)sc2c(F)ccc(-c3c(Cl)cc4c(N5CCN(C(=O)n6ccnc6)CC5)nc(OC[C@@]56CCCN5C[C@H](F)C6)nc4c3F)c12 [Example 231, 4-(4-(4-(1H-imidazole-1-carbonyl)piperazin-1-yl)-6-chloro-8-fluoro-2-(((2R,7aS)-2-fluorotetrahydro-1H-pyrrolizin-7a(5H)-yl)methoxy)quinazolin-7-yl)-2-amino-7-fluorobenzo[b]thiophene-3-carbonitrile] | 5 nM | 17 nM | 13 nM | 25 nM | 444 nM | 4 nM
